Converted amounts (≈) assume the structure as drawn.
How the values were obtained:
[1] = tested on: HIV; assay: inhibition of HIV-induced cytopathic effect in MT-4 cells (MTT method); assay type: cell-based; settings: for EC50: Human immunodeficiency virus 1, MT4, HIV-infected MT-4 cells, 1000 CCID50, 4 or 5 day incubation at 37° C., MTT method, read-out: ED50: Effective concentration for the inhibition of the proliferation of HIV by 50%; for S.I.: Selectivity index (CD50/ED50): ratio CD50/ED50, MT-4 cells
Description: The anti-HIV assays were based on the inhibition of the virus-induced cytopathic effect in MT-4 cells as described in J. Virol. Methods, 16, 171 (1987). Briefly, MT-4 cells were suspended in culture medium at 2.5×10^5 cells/ml and infected with 1000 CCID50 (50% cell culture infective dose) of HIV. Immediately, after virus infection, 100 μl of the cell suspension was brought into each well of a flat-bottomedmicrotiter tray containing various concentrations of the test compounds. After a 4 or 5 day incubation at 37° C., the number of viable cells was determined by the 3-(4,5-dimethylthiazol-2-yl)-2,5-diphenyltetrazoliumbromide (MTT) method, as disclosed in J. Virol. Methods, 20, 309 (1988).
ED50 : Effective concentration for the inhibition of the
proliferation of HIV by 50%

[2] = cytotoxicity: viability of mock-infected MT-4 host cells (MTT method); assay type: cell-based; settings: human, mt-4 cells, read-out: CD50: Cytotoxic concentration that causes death of cells by 50%
Description: The cytotoxicity of the compounds of the present invention was assessed in parallel with their antiviral activity. It was based on the viability of mock-infected host cells as determined by the MTT methods (se J. Virol. Methods, 20, 309 (1988)).
CD50 : Cytotoxic concentration that causes death of cells by 50%

Structure (SMILES)	EC50 [1]	S.I.: Selectivity index (CD50/ED50) [1]	CC50 [2]
CC#CCn1c(Sc2cc(C)cc(C)c2)c(CC)c(=O)[nH]c1=O [Example 25, 1-(2-butynyl)-5-ethyl-6-(3,5-dimethylphenylthio)-2,4-pyrimidinedione]	< 0.69 µg/mL	> 90	62.5 µg/mL (≈ 190 µM)
CCc1c(Sc2cc(C)cc(C)c2)n(C/C=C\CCl)c(=O)[nH]c1=O [Example 23]	< 0.93 µg/mL	> 41	38.2 µg/mL (≈ 105 µM)
C/C=C\Cn1c(Oc2cc(C)cc(C)c2)c(CC)c(=O)[nH]c1=O [Example 70, 1-(cis-2-butenyl)-5-ethyl-6-(3,5-dimethylphenoxy)-2,4-pyrimidinedione]	< 0.01 µg/mL	> 7,381	73.8 µg/mL (≈ 235 µM)
Cc1cc(C)cc(Sc2c(C(C)C)c(=O)[nH]c(=O)n2C/C=C/c2ccccc2)c1 [Example 29]	< 0.023 µg/mL	> 1,615	37.1 µg/mL (≈ 91.4 µM)
CCc1c(Oc2cc(C)cc(C)c2)n(C/C=C/C(=O)OC)c(=O)[nH]c1=O [Example 63]	< 0.032 µg/mL	> 224	7.17 µg/mL (≈ 20 µM)
CCc1c(C(=O)c2cc(C)cc(C)c2)n(CC=CC(=O)OC(C)C)c(=O)[nH]c1=O [Example 73, 1-(isopropoxycarbonylallyl)-5-ethyl-6-(3,5-dimethylbenzoyl)-2,4-pyrimidinedione]	< 0.01 µg/mL	> 485	4.85 µg/mL (≈ 12.2 µM)
CCc1c(C(=O)c2cc(C)cc(C)c2)n(C/C=C/CN=[N+]=[N-])c(=O)[nH]c1=O [Example 79, 1-(4-azido-trans-2-butenyl)-5-ethyl-6-(3,5-dimethylbenzoyl)-2,4-pyrimidinedione]	< 0.009 µg/mL	> 911	8.2 µg/mL (≈ 22.3 µM)
COC(=O)/C=C/Cn1c(Sc2cc(C)cc(C)c2)c(C(C)C)c(=O)[nH]c1=O [Example 30]	< 0.009 µg/mL	> 1,966	17.7 µg/mL (≈ 45.6 µM)
CCc1c(Cc2ccccc2)n(C/C=C/c2ccccc2)c(=O)[nH]c1=O [Example 33]	< 0.032 µg/mL	> 268	8.58 µg/mL (≈ 24.8 µM)
C=CCn1c(Cc2ccccc2)c(CC)c(=O)[nH]c1=O [Example 4, 1-allyl-5-ethyl-6-benzyl-2,4-pyrimidinedione]	< 0.32 µg/mL	> 164	52.5 µg/mL (≈ 194 µM)
CCc1c(Oc2cc(C)cc(C)c2)n(C/C=C/c2ccccc2)c(=O)[nH]c1=O [Example 59, 1-(trans-cinnamyl)-5-ethyl-6-(3,5-dimethylphenoxy)-2,4-pyrimidinedione]	< 0.23 µg/mL	> 167	38.6 µg/mL (≈ 102 µM)
C/C=C/Cn1c(Sc2cc(C)cc(C)c2)c(CC)c(=O)[nH]c1=O [Example 19]		> 971	8.74 µg/mL (≈ 26.4 µM)
Cc1cc(C)cc(C(=O)c2c(C(C)C)c(=O)[nH]c(=O)n2C/C=C/CCl)c1 [Example 9, 1-(4-chloro-trans-2-butenyl)-5-isopropyl-6-(3,5-dimethylbenzoyl)-2,4-pyrimidinedione]	< 0.009 µg/mL	> 708	6.38 µg/mL (≈ 17 µM)
CCc1c(C(=O)c2cc(C)cc(C)c2)n(C/C=C/CCl)c(=O)[nH]c1=O [Example 47]	< 0.009 µg/mL	> 774	6.7 µg/mL (≈ 18.6 µM)
CC#CCn1c(Oc2cc(C)cc(C)c2)c(C(C)C)c(=O)[nH]c1=O [Example 11, 1-(2-butynyl)-5-isopropyl-6-(3,5-dimethylphenoxy)-2,4-pyrimidinedione]	< 0.32 µg/mL	> 124	39.9 µg/mL (≈ 122 µM)
CCOC/C=C\Cn1c(Sc2ccccc2)c(CC)c(=O)[nH]c1=O [Example 16]	2.78 µg/mL (≈ 8.02 µM)	6.85	19 µg/mL (≈ 54.9 µM)
CCc1c(Sc2cc(C)cc(C)c2)n(C/C=C/CCl)c(=O)[nH]c1=O [Example 22]	< 0.36 µg/mL	> 93	33.8 µg/mL (≈ 92.6 µM)
C/C=C\Cn1c(C(=O)c2cc(C)cc(C)c2)c(CC)c(=O)[nH]c1=O [Example 68, 1-(cis-2-butenyl)-5-ethyl-6-(3,5-dimethylbenzoyl)-2,4-pyrimidinedione]	< 0.032 µg/mL	> 162	8.21 µg/mL (≈ 25.2 µM)
CC#CCn1c(Oc2cc(C)cc(C)c2)c(CC)c(=O)[nH]c1=O [Example 58]	< 0.34 µg/mL	> 143	48.9 µg/mL (≈ 157 µM)

Structure (SMILES)	EC50 [1]	S.I.: Selectivity index (CD50/ED50) [1]	CC50 [2]
CC#CCn1c(C(=O)c2cc(C)cc(C)c2)c(CC)c(=O)[nH]c1=O [Example 49, 1-(2-butynyl)-5-ethyl-6-(3,5-dimethylbenzoyl)-2,4-pyrimidinedione]	< 0.032 µg/mL	> 162	5.2 µg/mL (≈ 16 µM)
C/C=C/Cn1c(C(=O)c2cc(C)cc(C)c2)c(CC)c(=O)[nH]c1=O [Example 44]	< 0.01 µg/mL	> 3,439	34.4 µg/mL (≈ 105 µM)
CCc1c(Cc2cc(C)cc(C)c2)n(C/C=C/C(=O)OC)c(=O)[nH]c1=O [Example 37]	1.64 µg/mL (≈ 4.6 µM)	7.6	12.5 µg/mL (≈ 35 µM)
CCc1c(Sc2cc(C)cc(C)c2)n(C/C=C/CO)c(=O)[nH]c1=O [Example 78, 1-(4-hydroxy-trans-2-butenyl)-5-ethyl-6-(3,5-dimethylphenylthio)-2,4-pyrimidinedione]	< 0.97 µg/mL	> 29	29 µg/mL (≈ 83.6 µM)
C#CCn1c(Sc2cc(C)cc(C)c2)c(CC)c(=O)[nH]c1=O [Example 24, 1-propargyl-5-ethyl-6-(3,5-dimethylphenylthio)-2,4-pyrimidinedione]	< 0.032 µg/mL	> 56	1.81 µg/mL (≈ 5.76 µM)
CCc1c(C(=O)c2cc(C)cc(C)c2)n(C/C=C/CO)c(=O)[nH]c1=O [Example 84]	< 0.009 µg/mL	> 6,160	55.4 µg/mL (≈ 162 µM)
C/C=C/Cn1c(Oc2cc(C)cc(C)c2)c(CC)c(=O)[nH]c1=O [Example 10, 1-(trans-2-butenyl)-5-ethyl-6-(3,5-dimethylphenoxy)-2,4-pyrimidinedione]	< 0.01 µg/mL	> 1,939	19.4 µg/mL (≈ 61.7 µM)
Cc1cc(C)cc(C(=O)c2c(C(C)C)c(=O)[nH]c(=O)n2CC#Cc2ccccc2)c1 [Example 56, 1-(3-phenyl-2-propynyl)-5-isopropyl-6-(3,5-dimethylbenzoyl)-2,4-pyrimidinedione]	< 0.009 µg/mL	> 75.1	6.76 µg/mL (≈ 16.9 µM)
C/C=C/Cn1c(Sc2ccccc2)c(CC)c(=O)[nH]c1=O [Example 13]	< 0.32 µg/mL	> 50	16.2 µg/mL (≈ 53.5 µM)
CCc1c(Cc2cc(C)cc(C)c2)n(C/C=C/c2ccccc2)c(=O)[nH]c1=O [Example 35]	< 0.009 µg/mL	642	5.78 µg/mL (≈ 15.4 µM)
CCc1c(C(=O)c2cc(C)cc(C)c2)n(CC=C(C)C)c(=O)[nH]c1=O [Example 7, 1-(3-methyl-2-butenyl)-5-ethyl-6-(3,5-dimethylbenzoyl)-2,4-pyrimidinedione]	< 0.33 µg/mL	> 84	27.8 µg/mL (≈ 81.8 µM)
C#CCn1c(C(=O)c2cc(C)cc(C)c2)c(CC)c(=O)[nH]c1=O [Example 48, 1-propargyl-5-ethyl-6-(3,5-dimethylbenzoyl)-2,4-pyrimidinedione]	< 0.39 µg/mL	> 93	36.4 µg/mL (≈ 117 µM)
CC/C=C/Cn1c(Sc2cc(C)cc(C)c2)c(CC)c(=O)[nH]c1=O [Example 2, 1-(trans-2-pentenyl)-5-ethyl-6-(3,5-dimethylphenylthio)-2,4-pyrimidinedione]	< 0.32 µg/mL	> 29	8.73 µg/mL (≈ 25.3 µM)
CCc1c(C(=O)c2cc(C)cc(C)c2)n(C/C=C/c2ccccc2)c(=O)[nH]c1=O [Example 45, 1-(trans-cinnamyl)-5-ethyl-6-(3,5-dimethylbenzoyl)-2,4-pyrimidinedione]	< 0.009 µg/mL	> 663	5.97 µg/mL (≈ 15.4 µM)
CCc1c(Cc2cc(C)cc(C)c2)n(CC#Cc2ccccc2)c(=O)[nH]c1=O [Example 40, 1-(3-phenyl-2-propynyl)-5-ethyl-6-(3,5-dimethylbenzyl)-2,4-pyrimidinedione]	< 0.009 µg/mL	> 557	5.02 µg/mL (≈ 13.5 µM)
Cc1cc(C)cc(C(=O)c2c(C(C)C)c(=O)[nH]c(=O)n2C/C=C/c2ccccc2)c1 [Example 52]	< 0.009 µg/mL	> 1,083	9.75 µg/mL (≈ 24.2 µM)
Cc1cc(C)cc(Oc2c(C(C)C)c(=O)[nH]c(=O)n2CC#Cc2ccccc2)c1 [Example 67, 1-(3-phenyl-2-propynyl)-5-isopropyl-6-(3,5-dimethylphenoxy)-2,4-pyrimidinedione]	< 0.009 µg/mL	> 844	7.6 µg/mL (≈ 19.6 µM)
C=CCn1c(Cc2cc(C)cc(C)c2)c(CC)c(=O)[nH]c1=O [Example 34, 1-allyl-5-ethyl-6-(3,5-dimethylbenzyl)-2,4-pyrimidinedione]	< 0.32 µg/mL	> 38	12.3 µg/mL (≈ 41.3 µM)

Reference: US5747500A, “Antiviral 2, 4-pyrimidinedione derivatives” (priority 1993, dated 1998)
